Experimental data: US20250215030A1, “STAT MODULATORS AND USES THEREOF” (Recludix Pharma, Inc., priority 2022, published 2025)

What was measured:
[1] = molecular target: T1, Recombinant STAT6 protein (STAT6(W123-T658)) (Homo sapiens, UniProt P42226); test: STAT6 Fluorescence Polarization (FP) Assay; assay type: binding; details: STAT6(W123-T658) 250 nM, probe 5-FAM-ApYKPFQDLI-NH2 2 nM, 45-minute incubation
T1 construct: STAT6(W123-T658)
T1 sequence (P42226 123-658): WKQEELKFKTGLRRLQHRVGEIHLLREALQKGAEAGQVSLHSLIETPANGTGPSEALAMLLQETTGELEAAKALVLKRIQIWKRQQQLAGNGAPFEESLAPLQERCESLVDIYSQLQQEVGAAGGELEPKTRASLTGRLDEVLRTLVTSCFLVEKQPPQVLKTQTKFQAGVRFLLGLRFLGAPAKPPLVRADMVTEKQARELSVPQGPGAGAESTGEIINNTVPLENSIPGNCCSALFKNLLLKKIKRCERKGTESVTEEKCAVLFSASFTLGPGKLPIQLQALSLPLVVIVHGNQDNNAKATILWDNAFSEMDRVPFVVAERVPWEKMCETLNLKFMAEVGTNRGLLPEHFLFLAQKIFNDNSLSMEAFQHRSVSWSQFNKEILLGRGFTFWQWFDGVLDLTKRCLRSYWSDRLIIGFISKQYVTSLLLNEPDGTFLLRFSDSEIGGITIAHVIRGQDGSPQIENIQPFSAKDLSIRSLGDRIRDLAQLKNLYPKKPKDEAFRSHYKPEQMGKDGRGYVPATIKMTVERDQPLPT
How it was run: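 Competitive displacement of a fluorescent phosphotyrosine peptide (2 nM) from recombinant STAT6 W123-T658 (250 nM), 45 min at room temperature in 10 mM HEPES pH 7.4, 50 mM NaCl, 2 mM DTT. mP fitted against log compound for IC50, grouped A (≤300 nM) to D (>30 μM).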

[2] = molecular target: T2, Recombinant STAT3 protein (STAT3(G127-I722)) (Homo sapiens, UniProt P40763); test: STAT3 Fluorescence Polarization (FP) Assay; assay type: binding; details: STAT3(G127-I722) 25 nM, probe 5-FAM-GpYLPQTV-NH2 2 nM, 45-minute incubation
T2 construct: STAT3(G127-I722)
How it was run: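 Serially diluted compounds (1% DMSO) were mixed with 2 nM fluorescent phosphotyrosine peptide and 25 nM STAT3 construct G127-I722, pH 7.4, incubated 45 min at room temperature. IC50 values from fitted polarization curves are reported as categories A (≤100 nM), B, C, D (>10 μM).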

T2 sequence (P40763 127-722, species assumed): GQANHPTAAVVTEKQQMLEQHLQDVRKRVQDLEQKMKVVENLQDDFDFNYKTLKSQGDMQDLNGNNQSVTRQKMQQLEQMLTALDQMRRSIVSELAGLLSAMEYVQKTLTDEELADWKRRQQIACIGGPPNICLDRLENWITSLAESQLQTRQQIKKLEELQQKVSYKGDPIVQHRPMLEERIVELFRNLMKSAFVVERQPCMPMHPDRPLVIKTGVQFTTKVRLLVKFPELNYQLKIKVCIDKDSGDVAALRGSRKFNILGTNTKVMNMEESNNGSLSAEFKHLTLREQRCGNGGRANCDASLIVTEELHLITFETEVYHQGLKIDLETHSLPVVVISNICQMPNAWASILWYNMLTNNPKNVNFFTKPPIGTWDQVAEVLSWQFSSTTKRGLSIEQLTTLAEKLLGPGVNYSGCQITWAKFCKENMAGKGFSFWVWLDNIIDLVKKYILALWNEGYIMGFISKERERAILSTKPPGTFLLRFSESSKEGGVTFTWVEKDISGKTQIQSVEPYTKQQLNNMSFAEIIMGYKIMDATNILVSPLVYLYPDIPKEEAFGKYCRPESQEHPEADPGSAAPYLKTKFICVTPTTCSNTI

For `N#CC1(c2ccccn2)CN(C(=O)[C@@H]2CC[C@@H]3C[C@@H]4C[C@@H]4C[C@H](NC(=O)c4cc5cc(C(F)(F)P(=O)(O)O)ccc5s4)C(=O)N32)C1` [Compound 70, ((2-(((3S,6S,7aR,8aS,9aR)-3-(3-cyano-3-(pyridin-2-yl)azetidine-1-carbonyl)-5-oxodecahydro-1H-cyclopropa[d]pyrrolo[1,2-a]azocin-6-yl)carbamoyl)benzo[b]thiophen-5-yl)difluoromethyl)phosphonic acid], the IC50 [1] was 0.3 to 3 µM and the IC50 [2] was less than 0.1 µM.
`O=C(N[C@H]1C[C@H]2C[C@H]2C[C@H]2CC[C@@H](C(=O)N3CC(C(=O)N4CCOCC4)C3)N2C1=O)c1cc2cc(C(F)(F)P(=O)(O)O)ccc2s1` [Compound 71, (difluoro(2-(((3S,6S,7aR,8aS,9aR)-3-(3-(morpholine-4-carbonyl)azetidine-1-carbonyl)-5-oxodecahydro-1H-cyclopropa[d]pyrrolo[1,2-a]azocin-6-yl)carbamoyl)benzo[b]thiophen-5-yl)methyl)phosphonic acid] showed an IC50 [1] of 3 to 30 µM and an IC50 [2] of less than 0.1 µM.
`CN=S(C)(=O)CC1CN(C(=O)[C@@H]2CC[C@@H]3C[C@@H]4C[C@@H]4C[C@H](NC(=O)c4cc5cc(C(F)(F)P(=O)(O)O)ccc5s4)C(=O)N32)C1` (stereo partly drawn) [Compound 72, ((2-(((3S,6S,7aR,8aS,9aR)-3-(3-((N,S-dimethylsulfonimidoyl)methyl)azetidine-1-carbonyl)-5-oxodecahydro-1H-cyclopropa[d]pyrrolo[1,2-a]azocin-6-yl)carbamoyl)benzo[b]thiophen-5-yl)difluoromethyl)phosphonic acid] gave an IC50 [1] of 3 to 30 µM and an IC50 [2] of less than 0.1 µM.
In the case of `O=C(N[C@H]1C[C@H]2C[C@H]2C[C@H]2CC[C@@H](C(=O)N3CC(CC(F)F)(c4ccccc4)C3)N2C1=O)c1cc2cc(C(F)(F)P(=O)(O)O)ccc2s1` [Compound 73, ((2-(((3S,6S,7aR,8aS,9aR)-3-(3-(2,2-difluoroethyl)-3-phenylazetidine-1-carbonyl)-5-oxodecahydro-1H-cyclopropa[d]pyrrolo[1,2-a]azocin-6-yl)carbamoyl)benzo[b]thiophen-5-yl)difluoromethyl)phosphonic acid], the IC50 [1] is reported as 3 to 30 µM and the IC50 [2] is reported as less than 0.1 µM.
For `N#Cc1ccc(C2CN(C(=O)[C@@H]3CC[C@@H]4C[C@@H]5C[C@@H]5C[C@H](NC(=O)c5cc6cc(C(F)(F)P(=O)(O)O)ccc6s5)C(=O)N43)C2)cc1` [Compound 74, ((2-(((3S,6S,7aR,8aS,9aR)-3-(3-(4-cyanophenyl)azetidine-1-carbonyl)-5-oxodecahydro-1H-cyclopropa[d]pyrrolo[1,2-a]azocin-6-yl)carbamoyl)benzo[b]thiophen-5-yl)difluoromethyl)phosphonic acid], the IC50 [1] was 0.3 to 3 µM and the IC50 [2] was less than 0.1 µM.
Compound `COC1(c2nccn2C)CN(C(=O)[C@@H]2CC[C@@H]3C[C@@H]4C[C@@H]4C[C@H](NC(=O)c4cc5cc(C(F)(F)P(=O)(O)O)ccc5s4)C(=O)N32)C1` [Compound 75, (difluoro(2-(((3S,6S,7aR,8aS,9aR)-3-(3-methoxy-3-(1-methyl-1H-imidazol-2-yl)azetidine-1-carbonyl)-5-oxodecahydro-1H-cyclopropa[d]pyrrolo[1,2-a]azocin-6-yl)carbamoyl)benzo[b]thiophen-5-yl)methyl)phosphonic acid] has an IC50 [1] of 3 to 30 µM and an IC50 [2] of less than 0.1 µM.
For `Cn1cnnc1C1CN(C(=O)[C@@H]2CC[C@@H]3C[C@@H]4C[C@@H]4C[C@H](NC(=O)c4cc5cc(C(F)(F)P(=O)(O)O)ccc5s4)C(=O)N32)C1` [Compound 76, (difluoro(2-(((3S,6S,7aR,8aS,9aR)-3-(3-(4-methyl-4H-1,2,4-triazol-3-yl)azetidine-1-carbonyl)-5-oxodecahydro-1H-cyclopropa[d]pyrrolo[1,2-a]azocin-6-yl)carbamoyl)benzo[b]thiophen-5-yl)methyl)phosphonic acid], the IC50 [1] was 3 to 30 µM and the IC50 [2] was less than 0.1 µM.
Compound `O=C(N[C@H]1C[C@H]2C[C@H]2C[C@H]2CC[C@@H](C(=O)N3CC(c4[nH]nc5c4CCC5)C3)N2C1=O)c1cc2cc(C(F)(F)P(=O)(O)O)ccc2s1` [Compound 77, (difluoro(2-(((3S,6S,7aR,8aS,9aR)-5-oxo-3-(3-(2,4,5,6-tetrahydrocyclopenta[c]pyrazol-3-yl)azetidine-1-carbonyl)decahydro-1H-cyclopropa[d]pyrrolo[1,2-a]azocin-6-yl)carbamoyl)benzo[b]thiophen-5-yl)methyl)phosphonic acid] has an IC50 [1] of 3 to 30 µM and an IC50 [2] of less than 0.1 µM.
`O=C(N[C@H]1C[C@H]2C[C@H]2C[C@H]2CC[C@@H](C(=O)N3CC(c4nc5ccccc5[nH]4)C3)N2C1=O)c1cc2cc(C(F)(F)P(=O)(O)O)ccc2s1` [Compound 78, ((2-(((3S,6S,7aR,8aS,9aR)-3-(3-(1H-benzo[d]imidazol-2-yl)azetidine-1-carbonyl)-5-oxodecahydro-1H-cyclopropa[d]pyrrolo[1,2-a]azocin-6-yl)carbamoyl)benzo[b]thiophen-5-yl)difluoromethyl)phosphonic acid] was tested, and the IC50 [1] was 3 to 30 µM and the IC50 [2] was less than 0.1 µM.
Compound `CC(C)C1(c2ccccc2)CN(C(=O)[C@@H]2CC[C@@H]3C[C@@H]4C[C@@H]4C[C@H](NC(=O)c4cc5cc(C(F)(F)P(=O)(O)O)ccc5s4)C(=O)N32)C1` [Compound 79, (difluoro(2-(((3S,6S,7aR,8aS,9aR)-3-(3-isopropyl-3-phenylazetidine-1-carbonyl)-5-oxodecahydro-1H-cyclopropa[d]pyrrolo[1,2-a]azocin-6-yl)carbamoyl)benzo[b]thiophen-5-yl)methyl)phosphonic acid] has an IC50 [1] of 3 to 30 µM and an IC50 [2] of less than 0.1 µM.
Work on `O=C(N[C@H]1C[C@H]2C[C@H]2C[C@H]2CC[C@@H](C(=O)N3CC(c4ncccn4)C3)N2C1=O)c1cc2cc(C(F)(F)P(=O)(O)O)ccc2s1` [Compound 80, (difluoro(2-(((3S,6S,7aR,8aS,9aR)-5-oxo-3-(3-(pyrimidin-2-yl)azetidine-1-carbonyl)decahydro-1H-cyclopropa[d]pyrrolo[1,2-a]azocin-6-yl)carbamoyl)benzo[b]thiophen-5-yl)methyl)phosphonic acid] yielded an IC50 [1] of 3 to 30 µM and an IC50 [2] of less than 0.1 µM.
`Cc1nnc(C2CN(C(=O)[C@@H]3CC[C@@H]4C[C@@H]5C[C@@H]5C[C@H](NC(=O)c5cc6cc(C(F)(F)P(=O)(O)O)ccc6s5)C(=O)N43)C2)[nH]1` [Compound 81, (difluoro(2-(((3S,6S,7aR,8aS,9aR)-3-(3-(5-methyl-4H-1,2,4-triazol-3-yl)azetidine-1-carbonyl)-5-oxodecahydro-1H-cyclopropa[d]pyrrolo[1,2-a]azocin-6-yl)carbamoyl)benzo[b]thiophen-5-yl)methyl)phosphonic acid] showed an IC50 [1] of 0.3 to 3 µM and an IC50 [2] of less than 0.1 µM.
Work on `Cc1nnc(C2(C)CN(C(=O)[C@@H]3CC[C@@H]4C[C@@H]5C[C@@H]5C[C@H](NC(=O)c5cc6cc(C(F)(F)P(=O)(O)O)ccc6s5)C(=O)N43)C2)o1` [Compound 82, (difluoro(2-(((3S,6S,7aR,8aS,9aR)-3-(3-methyl-3-(5-methyl-1,3,4-oxadiazol-2-yl)azetidine-1-carbonyl)-5-oxodecahydro-1H-cyclopropa[d]pyrrolo[1,2-a]azocin-6-yl)carbamoyl)benzo[b]thiophen-5-yl)methyl)phosphonic acid] yielded an IC50 [1] of 0.3 to 3 µM and an IC50 [2] of less than 0.1 µM.
Work on `CS(=N)(=O)CC1CN(C(=O)[C@@H]2CC[C@@H]3C[C@@H]4C[C@@H]4C[C@H](NC(=O)c4cc5cc(C(F)(F)P(=O)(O)O)ccc5s4)C(=O)N32)C1` (stereo partly drawn) [Compound 83, (difluoro(2-(((3S,6S,7aR,8aS,9aR)-3-(3-((S-methysulfonimidoyl)methyl)azetidine-1-carbonyl)-5-oxodecahydro-1H-cyclopropa[d]pyrrolo[1,2-a]azocin-6-yl)carbamoyl)benzo[b]thiophen-5-yl)methyl)phosphonic acid] yielded an IC50 [1] of 3 to 30 µM and an IC50 [2] of less than 0.1 µM.
With `COCC1(c2ccccc2)CN(C(=O)[C@@H]2CC[C@@H]3C[C@@H]4C[C@@H]4C[C@H](NC(=O)c4cc5cc(C(F)(F)P(=O)(O)O)ccc5s4)C(=O)N32)C1` [Compound 84, (difluoro(2-(((3S,6S,7aR,8aS,9aR)-3-(3-(methoxymethyl)-3-phenylazetidine-1-carbonyl)-5-oxodecahydro-1H-cyclopropa[d]pyrrolo[1,2-a]azocin-6-yl)carbamoyl)benzo[b]thiophen-5-yl)methyl)phosphonic acid] the IC50 [1] was 3 to 30 µM and the IC50 [2] was less than 0.1 µM.
`Cc1ccccc1C1CN(C(=O)[C@@H]2CC[C@@H]3C[C@H]4C[C@H]4C[C@H](NC(=O)c4cc5cc(C(F)(F)P(=O)(O)O)ccc5s4)C(=O)N32)C1` [Compound 85, (difluoro(2-(((3S,6S,7aS,8aR,9aR)-5-oxo-3-(3-(o-tolyl)azetidine-1-carbonyl)decahydro-1H-cyclopropa[d]pyrrolo[1,2-a]azocin-6-yl)carbamoyl)benzo[b]thiophen-5-yl)methyl)phosphonic acid] gave an IC50 [1] of 0.3 to 3 µM and an IC50 [2] of less than 0.1 µM.
